Experimental findings from publication PMC4520450, “Procyanidins Negatively Affect the Activity of the Phosphatases of Regenerating Liver” (PLoS ONE, 2015) are described below.

The target of data set [1] is T1, PRL-2 (Homo sapiens, UniProt Q12974).
T1 construct: His-TEV (cleaved yes); made in house
T1 sequence (Q12974 1-167): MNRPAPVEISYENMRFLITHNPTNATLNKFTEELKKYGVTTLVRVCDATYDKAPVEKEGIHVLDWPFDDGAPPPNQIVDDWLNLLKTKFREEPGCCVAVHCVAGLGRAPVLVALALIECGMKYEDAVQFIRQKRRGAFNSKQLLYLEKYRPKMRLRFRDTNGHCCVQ
The data set can be described thus: DiFMUP phosphatase activity assay for PRLs. It is filed as biochemical. Conditions: 50 nM PRL-2, 30 min preincubation, 25°C, 24 μM DiFMUP; mean ± SEM (n = 3–5); read-out: IC50 (Ki) PRL-2. On the procedure: Fig 2 Effect of polyphenolic compounds 8 (A), 9 (B), 10 (C) and 11 (D) on the phosphatase activity of PRL-1, PRL-2, PRL-3, PP1, and PP2A. Proteins were incubated for 30 min with 0–1000 μM of the corresponding procyandin 8–11. Phosphatase activity was measured in the presence of DiFMUP at 25°C using the concentration corresponding to the KM of each protein. The KM for PRLs was determined separately (PRL-3 = 21 μM, PRL-2 and PRL-1 = 24 μM). The KM for PP1 (91 μM) and for PP2A (100 μM) was taken from the literature. Protein concentrations are 50 nM for all PRLs and 2 mU for PP1 and 0.05 U for PP2A (see the Experimental Procedures). Phosphatase activity in the absence of inhibitors was set as 100%. Data represent means ± standard errors of the mean (n = 3–5).
DiFMUP assay for PRLs: In a final reaction volume of 100 μL the PRLs (50 nM final concentration) were incubated with decreasing concentrations of the inhibitory polyphenols for 30 minutes at 25°C. The buffer conditions were 108 mM TrisCl (pH 7.5), Triton 0.05% (v/v), DTT 27.0 mM, NaCl 811 mM. After the incubation time 20 μL DiFMUP (6,8-Difluoro-4-methylumbelliferyl phosphate) was added to reach a final concentration of 21 μM for PRL-3 and 24 μM for PRL-1 and PRL-2. On a Tecan safire2 (Tecan, Salzburg, Austria) plate reader dephosphorylation of the substrate to its fluorescent product was monitored by following the emission at 358 nm with excitation at 452 nm for 20 minutes. All measurements were done in triplicates, and the experiments were repeated at least three times. The slopes of the initial phases were obtained by linear regression of the data points. The normalized reaction rates were plotted versus the log of the inhibitor concentrations and the IC50 values were obtained by fitting the curves using the one site competition model of GraphPad Prism (GraphPad Software, Version 5). KM values were determined by measuring reaction kinetics of substrate dilution series. Initial velocities were plotted against DiFMUP concentration and the data was analyzed by Michaelis-Menten kinetics curve fitting of GraphPad Prism. A final DMSO content of 0.4% was maintained for the monomeric catechins. Due to the high water solubility of the procyanidins DMSO was not required and measurements were done in assay buffer only.

Data set [2] concerns HEK293 cells (empty vector, PRL-1 and PRL-3 overexpressing). Description: Cytotoxicity by flow cytometry with propidium iodide. It is filed as cell-based. Particulars: 24 h. From the text:
To study the effects of procyanidins on PRL-1 and PRL-3 in cells, the trimeric catechin (procyanidin C2, 9) was chosen as a representative example due to its strong inhibitor activity in vitro toward both PRL-s and its smaller size compared to the higher oligomers, which could influence cell permeability. HEK293 cells stably overexpressing PRL-1 and PRL-3 were chosen as model cell line. As a control cell line, HEK293 cells transfected with the empty vector were utilized (see the Experimental Procedures). To avoid false positive results due to cell death, first cell viability was studied in a concentration dependent manner by using flow cytometry. Therefore, cells were treated with different concentrations of compound 9 for 24 h, harvested, and then the ratio of living to dead cells was determined using propidium iodide (Fig 5).
Fig 5 Cytotoxicity of procyanidin C2 (9) in HEK293 cells. Cells were treated with 50, 150 or 300 μM of 9 in the growth medium for 24 h. Cells were harvested, resuspended in PBS buffer and incubated with propidium iodide (1 mg/mL) for 5 min on ice. 10,000 events were set for the number of living cells. The number of living cells was divided by the number of total cells counted and given as percentage of cell survival. Data represent means ± standard errors of the mean (n = 3).
Fig 7 A) Cytotoxicity of procyanidin B3 (8) in HEK293 cells. Cells were treated with 50, 75 or 100 μM of 8 in the growth medium for 24 h. Cells were harvested, resuspended in PBS buffer and incubated with propidium iodide (1 mg/mL) for 5 min on ice. 10,000 events were set for the number of living cells. The number of living cells was divided by the number of total cells counted and given as percentage of cell survival. Data represent means ± standard errors of the mean (n = 3). B) Wound healing abilities of PRL-1 or PRL-3 overexpressing or empty vector control HEK293 cell lines were analyzed in the presence of compound 8 or medium only. Cells were seeded at a concentration of 800,000 cells per insert and procyanidin B3 (8) was added at a concentration of 50 and 75 μM. Speed of migration is shown for combined data from different replicates, as mean ± SD (n = 40–77). Two-sided t-tests with Welsh correction were performed for p < 0.05. ns = not significant;***: < 0.001; **: < 0.01; *: < 0.05.
Flow cytometry was used to determine the ratio of living to dead cells compared to the control. HEK293 empty vector and PRL-3 overexpressing cells were seeded in a transparent 6-well plate with 400,000 cells/well in DMEM medium without Phenol red, supplemented with 10% FBS, 1% glutamine and 0.2% hygromycin and blasticidin. For induction of PRL-3 expression, 0.1% tetracycline was added. After 24 hours incubation at 37°C, procyanidins 8 or 9 dissolved in growth medium and growth medium as a control were added to the respective wells in the indicated final concentrations and incubated for another 24 hours. Then, the medium was removed and collected in Eppendorf tubes, centrifuged for 5 min at 500 rpm and the supernatant removed. Then 1 mL of PBS (10%) was added to each well and the cells detached with a cell scraper. […] After thorough mixing the cell suspension was injected into a LSR- Fortessa Bench Top Analyzer (Beckton Dickinson) and the number of living and dead cells counted. […] The number of living cells was divided by the number of total cells counted and given as percentage of cell survival.

On to `Oc1cc(O)c2c(c1)O[C@H](c1ccc(O)c(O)c1)[C@@H](O)[C@@H]2c1c(O)cc(O)c2c1O[C@H](c1ccc(O)c(O)c1)[C@@H](O)C2` [Procyanidin B3 (8), Procyanidin B3], for which the IC50 in data set [1] was 103 ± 1.1 µM. In addition, the cytotoxic effects result in data set [2] (50, 75 and 100 μM, all three cell lines) is “did not show any cytotoxic effects”. Besides, the “concentration up to which not cytotoxic” value in data set [2] was “at least 100 μM”.

For `Oc1cc(O)c2c(c1)O[C@H](c1ccc(O)c(O)c1)[C@@H](O)[C@@H]2c1c(O)cc(O)c2c1O[C@H](c1ccc(O)c(O)c1)[C@@H](O)[C@@H]2c1c(O)cc(O)c2c1O[C@H](c1ccc(O)c(O)c1)[C@@H](O)C2` [Procyanidin C2 (9), Procyanidin C2], the IC50 in data set [1] was 15.2 ± 1.4 µM. The “concentration up to which not cytotoxic” value in data set [2] (human) was “up to 50 μM”.
